Marks after values point to notes of the source that are not given here.
Experiments:
[1] = Cupric reducing antioxidant capacity (CUPRAC) assay; conditions: concentration at 0.50 absorbance
Procedure: (§1) All experiments were realized in 96-well microplates, and the absorbance measurements were carried out on a Multimode Plate Reader, EnSpire, PerkinElmer, Waltham (US) United States of America. […] The results were expressed as 50% inhibition (IC50) and absorbance at 0.5 (A0.5) concentrations that are able to inhibit/block/chelate 50% or reduce the absorbance to 0.5 of the radical, enzyme catalytic sites or the formation of metallic complexes/cations.
The method described by Reference was used with no modifications. […] The result was given as A0.5 value.

Reducing power test = conditions: concentration at 0.50 absorbance
Procedure: as §1
Later, 50 μL of TCA (trichloroacetic acid) (10%) and 10 μL of ferric chloride (0.1%) were added before finally measuring the mixture’s absorbance at 700 nm.

[2] = Silver nanoparticle-based method (SNP)
Procedure: as §1
The reduction of Ag^+ to spherical silver nanoparticles (SNPs) was developed by Özyürek et al.. […] The microplate was incubated for 30 min at 25 °C, and the absorbance was read at 423 nm. […]

O-Phenanthroline assay = conditions: concentration at 0.50 absorbance
Procedure: as §1
Next, it was incubated for 20 min at 30 °C before measuring the absorbance at 510 nm. The result was given as A0.5 value.

[3] = Galvinoxyl radical (GOR) scavenging assay
Procedure: as §1
The result was given as IC50 value.

[4] = Hydroxyl radical scavenging assay
Procedure: as §1
It was evaluated according to the modified method of Smirnoff and Cumbes. […] The microplate was incubated for 30 min at 37 °C, and 36 μL H2O was added; immediately, the absorbance was measured at 510 nm. The result was given as IC50 value.

[5] = DPPH scavenging procedure
Procedure: as §1
Results were provided as IC50 values, and the I% were calculated using the above formula (*).

[6] = Superoxide alkaline DMSO test
Procedure: as §1
The superoxide radical was produced as described Kunchandy’s method: 30 µL of NBT (nitroblue tetrazolium) (1 mg/mL) and 40 μL of sample were added to 130 μL alkaline DMSO (1.0 mL DMSO, 5 mMNaOH, 100 µL H2O). The absorbance of the reaction mixture was measured at 560 nm, and results were provided as IC50 values.

urease = target: T1, urease (Canavalia ensiformis, UniProt P07374); format: biochemical, Canavalia ensiformis (Jack bean)
T1 construct: purchased Sigma Aldrich
T1 sequence (P07374 whole entry, looked up): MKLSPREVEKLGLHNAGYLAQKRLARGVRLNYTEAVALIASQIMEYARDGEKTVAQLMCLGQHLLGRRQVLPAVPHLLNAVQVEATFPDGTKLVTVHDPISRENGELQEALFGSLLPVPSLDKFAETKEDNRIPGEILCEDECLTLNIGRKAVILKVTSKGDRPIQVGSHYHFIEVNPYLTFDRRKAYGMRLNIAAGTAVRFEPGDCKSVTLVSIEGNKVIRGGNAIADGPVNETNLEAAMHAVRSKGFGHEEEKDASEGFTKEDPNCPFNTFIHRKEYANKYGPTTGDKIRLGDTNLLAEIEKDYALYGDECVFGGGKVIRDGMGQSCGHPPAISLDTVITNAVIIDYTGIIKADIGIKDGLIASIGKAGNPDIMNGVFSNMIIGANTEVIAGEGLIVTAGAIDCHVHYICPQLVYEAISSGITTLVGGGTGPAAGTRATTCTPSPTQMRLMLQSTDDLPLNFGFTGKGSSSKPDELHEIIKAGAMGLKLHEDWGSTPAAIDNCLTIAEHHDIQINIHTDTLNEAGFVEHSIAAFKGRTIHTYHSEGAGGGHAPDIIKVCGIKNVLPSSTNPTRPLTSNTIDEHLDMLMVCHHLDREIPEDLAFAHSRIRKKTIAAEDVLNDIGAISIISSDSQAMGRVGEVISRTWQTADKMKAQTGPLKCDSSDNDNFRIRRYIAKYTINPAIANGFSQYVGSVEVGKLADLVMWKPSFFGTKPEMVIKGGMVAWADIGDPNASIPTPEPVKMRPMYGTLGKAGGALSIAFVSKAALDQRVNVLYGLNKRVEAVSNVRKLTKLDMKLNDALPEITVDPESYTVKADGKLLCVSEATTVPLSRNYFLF
Procedure: Ultrapure water was obtained by a Milli-Q system (Millipore, Bedford, MA, USA).
All experiments were realized in 96-well microplates, and the absorbance measurements were carried out on a Multimode Plate Reader, EnSpire, PerkinElmer, Waltham (US) United States of America. […] The EamCE solution was prepared at seven different concentrations, (800, 400, 200, 100, 50, 25, 12.5 µg/mL) and every assay was realized in triplicate. The results were expressed as 50% inhibition (IC50) and absorbance at 0.5 (A0.5) concentrations that are able to inhibit/block/chelate 50% or reduce the absorbance to 0.5 of the radical, enzyme catalytic sites or the formation of metallic complexes/cations.
Urease inhibitory capability was determined by measuring ammonia production using the indophenol method [35]. Briefly, the reaction mixture consisted of 25 μL of enzyme solution ((5 U/mL) (Jack bean urease)), 10 μL of the EamCE solution, and 50 μL of urea substrate solution, then it was incubated at 30 °C for 15 min. Then, 45 μL of phenol reagent (2 g of phenol (C6H5OH) in 25 mL H2O + 25 mg of Na2[Fe(CN)5NO],2H2O in 25 mL H2O) and 70 μL of basic reagent (0.7125 g of NaOH in 25 mL H2O + 1.175 mL of NaOCl in 25 mL H2O) were added later. After 50 min of incubation, the absorbance was measured at 630 nm, and result was given as IC50 value.

[7] = ABTS scavenging procedure
Procedure: as §1
The ABTS^•+ scavenging ability was performed spectrophotometrically according to the modified procedure of Re et al.. First, the ABTS^•+ was prepared as follows: 2 mM of ABTS was dissolved in H2O with 2.45 mM potassium persulfate (K2S2O8), and the mixture was conserved at ambient temperature for 16 h in obscurity. […] Thereafter, the microplate was incubated for 10 min before measuring the absorbance at 734 nm. The equation below (*) was used to calculate the inhibition percentage of ABTS radical, and results were presented as IC50 values. I% = ((Ac − As)/Ac) × 100 (*)(1)

[8] = β-Carotene/linoleic acid bleaching test
Procedure: as §1
Proceeding as described by Marco [23], with minor changes: 0.5 mg of β-carotene, 1 mL of chloroform, 25 μL of linoleic acid, and 200 μL of Tween 40 were added, forming an emulsified mixture. Then, it was evaporated under vacuum, and 50 mL of hydrogen peroxide (30%) were added with vigorous shaking. The absorbance at 470 nm should give a value between (0.8–0.9).

Row | Molecule | CUPRAC (A0.5) [1] | Reducing Power (A0.5) (Reducing power test) | SNP [2] | Phenonthroline (A0.5) (O-Phenanthroline assay) | GOR (IC50) [3] | Hydroxyl Radical (IC50) [4] | DPPH (IC50) [5] | DMSO Alcalin (IC50) [6] | Anti-Urease IC50 (urease) | ABTS (IC50) [7] | Beta Carotene (IC50) [8]
1 | O=C1O[C@H]([C@@H](O)CO)C(O)=C1O [Ascorbic Acid] | 8.31 ± 0.15 ^d µg/mL | 6.77 ± 1.15 ^c µg/mL | 7.14 ± 0.05 ^b µg/mL | 3.08 ± 0.02 ^d µg/mL | 5.02 ± 0.01 ^d µg/mL | 32.33 ± 1.17 ^b µg/mL |  |  |  |  | 
2 | Cc1c(C)c2c(c(C)c1O)CC[C@@](C)(CCC[C@H](C)CCC[C@H](C)CCCC(C)C)O2 [α-Tocopherol] |  | 34.93 ± 2.38 ^b µg/mL |  |  |  |  | 13.02 ± 5.17 ^d µg/mL | ˂3.125 µg/mL |  |  | 
3 | NC(N)=S [Thiourea] |  |  |  |  |  |  |  |  | 11.57 ± 0.68 ^b µg/mL |  | 
4 | Cc1cc(C(C)(C)C)c(O)c(C(C)(C)C)c1 [BHT] | 8.97 ± 3.94 ^b µg/mL |  |  | 2.24 ± 0.17 ^b µg/mL | 5.38 ± 0.06 ^b µg/mL |  | 12.99 ± 0.41 ^b µg/mL |  |  | 1.29 ± 0.30 ^b µg/mL | 1.05 ± 0.03 ^b µg/mL
5 | COc1ccc(O)c(C(C)(C)C)c1 [BHA] | 5.35 ± 0.71 ^c µg/mL |  |  | 0.93 ± 0.07 ^c µg/mL | 3.32 ± 0.18 ^c µg/mL |  | 6.14 ± 0.41 ^c µg/mL |  |  | 1.81 ± 0.10 ^c µg/mL | 0.91 ± 0.01 ^c µg/mL
6 | Tannic Acid |  | 5.39 ± 0.91 ^d µg/mL |  |  |  |  |  | <3.125 µg/mL |  |  | 
7 | Cc1c(C)c2c(c(C)c1O)CCC(C)(C(=O)O)O2 (stereo not shown) [Trolox] | 8.69 ± 0.14 ^e µg/mL | 5.25 ± 0.20 ^e µg/mL | 34.17 ± 1.23 ^c µg/mL | 5.21 ± 0.27 ^e µg/mL | 4.31 ± 0.05 ^e µg/mL |  | 5.12 ± 0.21 ^e µg/mL |  |  | 3.21 ± 0.06 ^d µg/mL | 

Source: paper PMC8774970 (Foods, 2022)
